Results taken from ChEMBL document CHEMBL4017480, “Discovery and optimization of selective FGFR4 inhibitors via scaffold hopping” (Bioorg Med Chem Lett, 2017).

How the values were obtained:
[1] = target: T1, Tyrosine-protein kinase Tec (Homo sapiens, UniProt P42680); assay: Inhibition of human TEC using poly[Glu:Tyr] (4:1) as substrate measured after 120 mins in presence of [gamma33P]ATP by P81 ion exchange chromatographic method
T1 sequence (P42680 whole entry): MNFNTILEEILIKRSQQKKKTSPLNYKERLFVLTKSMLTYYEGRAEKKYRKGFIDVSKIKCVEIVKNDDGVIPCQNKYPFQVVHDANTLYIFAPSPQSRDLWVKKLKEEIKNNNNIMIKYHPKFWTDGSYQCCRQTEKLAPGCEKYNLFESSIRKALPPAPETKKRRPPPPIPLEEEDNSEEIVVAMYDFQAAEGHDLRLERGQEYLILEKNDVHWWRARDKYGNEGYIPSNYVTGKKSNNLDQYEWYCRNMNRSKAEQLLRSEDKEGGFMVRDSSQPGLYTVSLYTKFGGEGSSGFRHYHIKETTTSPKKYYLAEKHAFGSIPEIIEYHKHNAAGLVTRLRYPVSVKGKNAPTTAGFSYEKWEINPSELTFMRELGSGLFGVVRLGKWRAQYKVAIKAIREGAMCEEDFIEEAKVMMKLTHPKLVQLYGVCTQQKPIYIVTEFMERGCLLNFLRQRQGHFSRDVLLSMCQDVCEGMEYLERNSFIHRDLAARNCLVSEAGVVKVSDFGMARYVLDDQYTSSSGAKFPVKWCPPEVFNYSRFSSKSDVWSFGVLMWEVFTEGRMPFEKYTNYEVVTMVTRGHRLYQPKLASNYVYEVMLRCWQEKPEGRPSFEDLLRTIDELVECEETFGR

[2] = Stability in mouse plasma assessed as compound remaining at 2 uM measured after 2 hrs by LC-MS/MS analysis; assay type: ADME, cell-free; details: read-out: Stability
[3] = target: Tyrosine-protein kinase BTK (Homo sapiens, UniProt Q06187); assay: Inhibition of human BTK at 10 uM using KVEKIGEGTYGVVYK as substrate measured after 120 mins in presence of [gamma33P]ATP by P81 ion exchange chromatographic method relative to control
[4] = Stability in human plasma assessed as compound remaining at 2 uM measured after 2 hrs by LC-MS/MS analysis; assay type: ADME, cell-free; details: read-out: Stability
Cytochrome P450 1A2 = target: T2, Cytochrome P450 1A2 (Homo sapiens, UniProt P05177); assay: Inhibition of CYP1A2 in human liver microsomes using phenacetin as substrate pretreated for 10 mins followed by substrate addition measured after 10 mins in presence of NADPH by LC-MS/MS method; assay type: ADME
T2 sequence (P05177 whole entry): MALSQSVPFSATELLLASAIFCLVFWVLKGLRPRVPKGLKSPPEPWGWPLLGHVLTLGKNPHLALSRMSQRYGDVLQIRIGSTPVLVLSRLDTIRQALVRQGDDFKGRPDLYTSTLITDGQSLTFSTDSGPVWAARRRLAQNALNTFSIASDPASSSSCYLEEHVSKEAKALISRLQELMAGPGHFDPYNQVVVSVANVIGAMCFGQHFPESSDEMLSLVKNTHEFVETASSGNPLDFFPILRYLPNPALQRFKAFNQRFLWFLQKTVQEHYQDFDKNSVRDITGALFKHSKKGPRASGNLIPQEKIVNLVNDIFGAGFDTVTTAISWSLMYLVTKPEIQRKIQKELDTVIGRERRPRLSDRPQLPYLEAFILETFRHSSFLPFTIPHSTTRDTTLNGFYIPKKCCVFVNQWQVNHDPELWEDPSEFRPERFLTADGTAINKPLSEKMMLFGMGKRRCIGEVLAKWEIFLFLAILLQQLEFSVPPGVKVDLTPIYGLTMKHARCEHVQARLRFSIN

[5] = target: T3, Tyrosine-protein kinase JAK3 (Homo sapiens, UniProt P52333); assay: Inhibition of human JAK3 using GEEEEYFELVKKKK as substrate measured after 120 mins in presence of [gamma33P]ATP by P81 ion exchange chromatographic method
T3 sequence (P52333 whole entry): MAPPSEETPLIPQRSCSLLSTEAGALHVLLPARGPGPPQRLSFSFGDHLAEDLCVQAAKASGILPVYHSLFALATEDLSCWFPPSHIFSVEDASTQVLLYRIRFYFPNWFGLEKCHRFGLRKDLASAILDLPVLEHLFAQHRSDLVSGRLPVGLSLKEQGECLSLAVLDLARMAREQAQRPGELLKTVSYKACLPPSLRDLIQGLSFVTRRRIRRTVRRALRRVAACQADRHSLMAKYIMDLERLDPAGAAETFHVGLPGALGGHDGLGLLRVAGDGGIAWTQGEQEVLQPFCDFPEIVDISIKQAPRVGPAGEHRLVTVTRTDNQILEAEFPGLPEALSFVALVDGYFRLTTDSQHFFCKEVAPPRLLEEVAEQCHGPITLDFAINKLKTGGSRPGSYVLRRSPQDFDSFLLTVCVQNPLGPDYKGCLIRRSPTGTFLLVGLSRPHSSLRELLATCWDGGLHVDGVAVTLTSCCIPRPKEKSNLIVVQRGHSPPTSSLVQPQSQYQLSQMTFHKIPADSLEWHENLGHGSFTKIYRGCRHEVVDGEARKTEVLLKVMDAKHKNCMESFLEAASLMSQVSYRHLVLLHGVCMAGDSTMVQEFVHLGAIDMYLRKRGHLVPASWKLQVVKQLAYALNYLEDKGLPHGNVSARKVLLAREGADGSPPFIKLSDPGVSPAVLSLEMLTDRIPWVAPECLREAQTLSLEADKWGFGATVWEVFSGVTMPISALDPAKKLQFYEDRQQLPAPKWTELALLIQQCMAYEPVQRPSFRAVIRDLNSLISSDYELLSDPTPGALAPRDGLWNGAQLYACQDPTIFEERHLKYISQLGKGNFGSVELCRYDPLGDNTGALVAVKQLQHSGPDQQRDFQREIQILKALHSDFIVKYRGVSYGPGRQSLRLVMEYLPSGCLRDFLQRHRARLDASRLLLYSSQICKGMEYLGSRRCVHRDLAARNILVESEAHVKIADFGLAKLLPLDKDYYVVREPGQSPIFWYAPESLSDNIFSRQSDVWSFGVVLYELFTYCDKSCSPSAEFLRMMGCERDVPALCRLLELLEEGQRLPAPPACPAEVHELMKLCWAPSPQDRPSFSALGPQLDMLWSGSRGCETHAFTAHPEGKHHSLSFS

Cytochrome P450 2D6 = Cytochrome P450 2D6 (Homo sapiens, UniProt P10635); assay: Inhibition of CYP2D6 in human liver microsomes using dextromethorphan as substrate pretreated for 10 mins followed by substrate addition measured after 10 mins in presence of NADPH by LC-MS/MS method; assay type: ADME
[6] = target: Epidermal growth factor receptor (Homo sapiens, UniProt P00533); assay: Inhibition of human EGFR using poly[Glu:Tyr] (4:1) as substrate measured after 120 mins in presence of [gamma33P]ATP by P81 ion exchange chromatographic method
[7] = Octanol-buffer distribution co-efficient, log D of the compound at pH 7.4; assay type: physicochemical
[8] = target: Vascular endothelial growth factor receptor 2 (Homo sapiens, UniProt P35968); assay: Inhibition of human VEGFR2 using poly[Glu:Tyr] (4:1) as substrate measured after 120 mins in presence of [gamma33P]ATP by P81 ion exchange chromatographic method
Vascular endothelial growth factor receptor 2, sequence (P35968 whole entry): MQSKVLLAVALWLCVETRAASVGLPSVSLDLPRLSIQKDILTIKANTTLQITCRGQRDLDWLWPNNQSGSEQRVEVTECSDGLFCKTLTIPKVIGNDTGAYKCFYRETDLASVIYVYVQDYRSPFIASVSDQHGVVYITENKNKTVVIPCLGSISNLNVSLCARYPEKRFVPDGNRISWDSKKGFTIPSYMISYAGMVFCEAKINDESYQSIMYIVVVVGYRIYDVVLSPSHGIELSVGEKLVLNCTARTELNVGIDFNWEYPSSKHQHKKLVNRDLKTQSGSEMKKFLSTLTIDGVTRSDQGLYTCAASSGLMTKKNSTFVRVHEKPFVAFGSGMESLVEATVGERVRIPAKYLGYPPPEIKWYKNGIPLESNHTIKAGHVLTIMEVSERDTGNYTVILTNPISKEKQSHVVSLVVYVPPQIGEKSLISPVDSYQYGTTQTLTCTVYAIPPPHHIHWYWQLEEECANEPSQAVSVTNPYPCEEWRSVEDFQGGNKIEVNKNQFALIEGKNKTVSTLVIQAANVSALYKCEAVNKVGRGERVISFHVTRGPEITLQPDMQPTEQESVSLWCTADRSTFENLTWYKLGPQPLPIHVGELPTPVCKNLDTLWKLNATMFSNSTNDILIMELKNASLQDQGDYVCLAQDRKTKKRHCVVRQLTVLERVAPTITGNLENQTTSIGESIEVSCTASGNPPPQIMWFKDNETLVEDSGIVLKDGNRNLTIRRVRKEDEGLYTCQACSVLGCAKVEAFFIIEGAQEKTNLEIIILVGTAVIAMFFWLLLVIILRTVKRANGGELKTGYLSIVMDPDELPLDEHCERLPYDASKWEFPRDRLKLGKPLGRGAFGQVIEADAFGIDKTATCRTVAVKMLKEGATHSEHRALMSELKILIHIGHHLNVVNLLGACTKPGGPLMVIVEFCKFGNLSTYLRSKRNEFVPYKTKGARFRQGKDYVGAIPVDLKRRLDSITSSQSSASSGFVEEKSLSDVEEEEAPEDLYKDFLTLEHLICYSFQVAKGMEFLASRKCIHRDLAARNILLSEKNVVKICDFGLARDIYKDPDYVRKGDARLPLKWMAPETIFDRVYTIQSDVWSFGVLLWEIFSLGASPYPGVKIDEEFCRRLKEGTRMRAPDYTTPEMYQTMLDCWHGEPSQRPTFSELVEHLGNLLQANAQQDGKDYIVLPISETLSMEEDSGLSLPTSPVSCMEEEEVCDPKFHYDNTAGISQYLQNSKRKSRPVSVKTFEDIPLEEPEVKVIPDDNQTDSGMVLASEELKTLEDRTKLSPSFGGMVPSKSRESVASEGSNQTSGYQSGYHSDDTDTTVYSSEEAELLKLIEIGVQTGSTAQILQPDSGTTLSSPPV

Epidermal growth factor receptor, sequence (P00533 whole entry): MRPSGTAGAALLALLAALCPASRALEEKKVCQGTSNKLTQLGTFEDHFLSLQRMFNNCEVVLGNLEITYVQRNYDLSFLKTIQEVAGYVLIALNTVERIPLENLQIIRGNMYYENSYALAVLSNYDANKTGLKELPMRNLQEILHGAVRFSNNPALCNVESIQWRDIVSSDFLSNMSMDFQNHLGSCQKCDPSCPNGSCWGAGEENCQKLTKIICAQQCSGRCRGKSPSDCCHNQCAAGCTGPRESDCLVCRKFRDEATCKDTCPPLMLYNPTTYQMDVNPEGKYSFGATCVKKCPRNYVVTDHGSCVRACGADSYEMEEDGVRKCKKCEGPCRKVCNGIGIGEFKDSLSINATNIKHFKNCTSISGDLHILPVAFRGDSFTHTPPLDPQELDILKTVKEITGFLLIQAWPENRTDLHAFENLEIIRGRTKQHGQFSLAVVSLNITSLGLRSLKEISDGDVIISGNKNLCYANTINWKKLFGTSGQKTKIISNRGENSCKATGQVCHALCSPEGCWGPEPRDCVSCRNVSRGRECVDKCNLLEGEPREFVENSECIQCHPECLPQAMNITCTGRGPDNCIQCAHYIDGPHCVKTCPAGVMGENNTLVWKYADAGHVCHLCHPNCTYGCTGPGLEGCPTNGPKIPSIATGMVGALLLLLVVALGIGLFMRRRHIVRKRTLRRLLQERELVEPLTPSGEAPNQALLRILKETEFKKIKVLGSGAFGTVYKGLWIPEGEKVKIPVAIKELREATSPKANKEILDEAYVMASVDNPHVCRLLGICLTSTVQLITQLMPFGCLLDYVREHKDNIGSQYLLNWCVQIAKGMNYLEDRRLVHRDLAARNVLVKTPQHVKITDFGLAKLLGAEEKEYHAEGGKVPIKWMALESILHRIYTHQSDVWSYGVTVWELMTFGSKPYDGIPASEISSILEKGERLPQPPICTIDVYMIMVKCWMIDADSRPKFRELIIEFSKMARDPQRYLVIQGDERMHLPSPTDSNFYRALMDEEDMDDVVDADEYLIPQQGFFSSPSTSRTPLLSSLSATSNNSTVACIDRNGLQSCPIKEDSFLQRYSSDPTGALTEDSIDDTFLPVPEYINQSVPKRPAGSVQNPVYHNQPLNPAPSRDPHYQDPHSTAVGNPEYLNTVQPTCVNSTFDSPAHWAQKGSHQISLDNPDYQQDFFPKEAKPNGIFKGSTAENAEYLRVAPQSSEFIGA
Tyrosine-protein kinase BTK, sequence (Q06187 whole entry): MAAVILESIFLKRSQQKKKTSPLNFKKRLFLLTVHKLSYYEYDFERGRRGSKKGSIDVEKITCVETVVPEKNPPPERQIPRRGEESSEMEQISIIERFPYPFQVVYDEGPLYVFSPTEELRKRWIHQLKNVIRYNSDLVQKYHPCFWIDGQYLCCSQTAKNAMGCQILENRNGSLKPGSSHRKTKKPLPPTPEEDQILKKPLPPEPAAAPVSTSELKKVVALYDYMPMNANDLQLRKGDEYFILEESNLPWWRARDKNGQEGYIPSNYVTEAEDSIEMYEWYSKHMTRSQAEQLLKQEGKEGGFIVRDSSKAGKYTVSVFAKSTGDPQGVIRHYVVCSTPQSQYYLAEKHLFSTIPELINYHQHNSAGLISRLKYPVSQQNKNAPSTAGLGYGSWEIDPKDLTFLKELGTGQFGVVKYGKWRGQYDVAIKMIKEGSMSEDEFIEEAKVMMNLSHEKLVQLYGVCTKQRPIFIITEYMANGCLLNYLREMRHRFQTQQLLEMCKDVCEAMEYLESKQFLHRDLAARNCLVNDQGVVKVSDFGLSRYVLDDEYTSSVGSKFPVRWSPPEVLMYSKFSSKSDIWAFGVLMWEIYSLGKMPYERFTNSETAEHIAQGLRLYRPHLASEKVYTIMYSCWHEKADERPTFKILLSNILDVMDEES
Cytochrome P450 2D6, sequence (P10635 whole entry): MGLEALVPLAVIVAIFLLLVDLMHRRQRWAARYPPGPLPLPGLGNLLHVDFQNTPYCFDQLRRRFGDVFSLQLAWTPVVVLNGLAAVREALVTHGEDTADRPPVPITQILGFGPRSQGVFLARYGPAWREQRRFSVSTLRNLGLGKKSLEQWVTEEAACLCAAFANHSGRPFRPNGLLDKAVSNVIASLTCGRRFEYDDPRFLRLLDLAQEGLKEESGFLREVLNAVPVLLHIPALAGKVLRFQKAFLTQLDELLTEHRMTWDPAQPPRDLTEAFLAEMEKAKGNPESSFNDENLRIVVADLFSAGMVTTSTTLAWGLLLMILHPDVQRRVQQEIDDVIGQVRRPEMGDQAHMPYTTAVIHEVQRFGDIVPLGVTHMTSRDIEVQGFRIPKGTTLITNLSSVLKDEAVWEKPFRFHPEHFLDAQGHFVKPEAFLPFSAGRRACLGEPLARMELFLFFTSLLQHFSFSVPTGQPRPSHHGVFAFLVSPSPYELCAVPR

IC50 [1] [µM] | remaining at 2 h, 2 µM [2] [%] | inhibition [3] [%] | remaining at 2 h, 2 µM [4] [%] | IC50 (Cytochrome P450 1A2) [µM] | IC50 [5] [µM] | IC50 (Cytochrome P450 2D6) [µM] | IC50 [6] [µM] | logD [7] | IC50 [8] [µM] | SMILES
> 10 | 63 | -7 | 71 | 15.9 | > 10 | 12.5 | > 10 | > 4.5 | > 10 | C=CC(=O)Nc1cccc(C)c1Nc1ncc2cc(-c3c(Cl)c(OC)cc(OC)c3Cl)ccc2n1
> 10 | 97 | 14 | 92 | > 50 | > 10 | > 50 | > 10 | 1.8 | > 10 | C=CC(=O)N[C@H]1COC[C@H]1Nc1ncc(OCc2c(F)c(OC)cc(OC)c2F)cn1
> 10 | 13 | 7 | 48 | > 50 | > 10 | 35 | > 10 | 3 | > 10 | C=CC(=O)Nc1cccc(C)c1Nc1ncc(OCc2c(F)c(OC)cc(OC)c2F)cn1
